The text below walks through data of patent publication US20080280890A1, “HYDROXYLAMINE COMPOUNDS AND METHODS OF THEIR USE” (priority 2007, published 2008).

Data set [1] has as its system Human neuroblastoma SKN-SH cells, resistant to doxorubicin. The data set can be described thus: Chemoresistance: cancer cell viability (MTT) in presence or absence of doxorubicin. The format is cell-based. To be noted: compound 50 ug/mL, MTT. An excerpt: A method for evaluating a compound's propensity to overcome cancer cell chemoresistance is described in “Caspase Inhibition Switches Doxorubicin-Induced Apoptosis To Senescence”, Abdelhadi Rebbaa, Xin Zheng, Pauline M Chou and Bernard L Mirkin, Oncogene (2003) 22, 2805-2811. Resistant human cancer cells to doxorubicin were selected by stepwise exposure to drug concentrations ranging from 10^−9 M-10^−6 M over 3 months. They were then subjected to treatment with the doxorubicin alone or in combination with hydroxylamine compounds 1-12, 16, 20, and 21 (Table 4). The cells were incubated with the drugs for 72 hours, and cell viability was measured by the MTT assay. Additionally, molecular pathways that might be associated with increased chemo-responsiveness with these compounds were investigated. p Cancer Cell Viability Data for certain hydroxylamines in the presence or absence of Doxorubicin is listed in Table 4.
A method for evaluating a compound's propensity to overcome cancer cell chemoresistance is described in “Caspase Inhibition Switches Doxorubicin-Induced Apoptosis To Senescence”, Abdelhadi Rebbaa, Xin Zheng, Pauline M Chou and Bernard L Mirkin, Oncogene (2003) 22, 2805-2811. Human neuroblastoma SKN-SH cells (ATCC Cat. No. HTB-11) were cultured in Dulbecco's Modified Eagles Medium (DMEM; Gibco, Grand Island, N.Y.) supplemented with 10% fetal bovine serum (FBS; Sigma-Aldrich, St. Louis, Mo.) at 37° C. in a 95% Air/5% CO2 atmosphere. Resistant human cancer cells to doxorubicin were selected by stepwise exposure to drug concentrations ranging from 10^−9M-10^−6M over 3 months. They were then subjected to treatment with the doxorubicin alone or in combination with hydroxylamine compounds. The cells were incubated with the drugs for 72 hours, and cell viability was measured by the MTT assay. This consists of adding 10 μl/well of MTT (5 mg/ml solution) and incubation for 4 h at 37° C. The precipitate formed is then solubilized by addition of 100 μl of HCL 0.5 N/Isopropanol and incubation for 15 hours at 37° C. The optical density is measured at 570 nm and cell survival is estimated by comparison to untreated cells. Each point represents 4 wells data represent average ± SE. Additionally, molecular pathways that might be associated with increased chemo-responsiveness with these compounds were investigated.
Cytotoxic activity of doxorubicin and hydroxylamine analogs were quantitatively determined by a colorimetric assay utilizing 3-(4,5-dimethyl-2-thiazolyl) 2,5-diphenyl tetrazolium bromide (MTT; Sigma-Aldrich, St. Louis, Mo.). Briefly, cells were seeded at 10^4 cells/well in 96-well plates and maintained in culture for 24 hours at 37° C. in DMEM supplemented with 10% FBS. Drugs were added to designated wells and cells were incubated for […], following which MTT (10 μL of 5 mg/ml solution) was added to each 100 μl well and incubated for 4 hours at 37° C. The cells were solubilized by incubation with 100 μl of HCl 0.5N in isopropanol for 15 hours at 37° C. The optical density of this solution was measured at 570 nm and the percentage of viable cells estimated by comparison with untreated control cells.

The test system of data set [2] is Angiogenesis in CAM model. The data set can be described thus: Neovascularization on the CAM (chick chorioallantoic membrane model of angiogenesis). The format is in vivo, chicken. To be noted: 30 ug; for Percent inhibition of angiogenesis in CAM model at 30 ug: unit assumed. The protocol: In vivo neovascularization was examined by the method previously described by Auerbach et al. (J. Dev. Biol. 41:391-394 (1974)). Ten-day old chicken embryos were purchased from Spafas, Inc. (Preston, Conn.) and were incubated at 37° C. with 55% relative humidity. In the dark, with the aid of a candling lamp, a small hole was punctured in the shell concealing the air sac with a hypodermic needle. A second hole was punctured in the shell on the broadside of the egg directly over an […] portion of the embryonic membrane, as observed during candling. An artificial air sac was created beneath the second hole by applying gentle vacuum to the first hole using a small rubber squeeze bulb. The vacuum caused the chorioallantoic membrane (CAM) to separate from the shell.
A window, approximately 1.0 cm^2, was cut in the shell over the dropped CAM with the use of a small crafts grinding wheel (Dremel, Division of Emerson Electric Company Racine, Wis.). The window allowed direct access to the underlying CAM.
A pro-angiogenic agent was added to induce new blood vessel branches on the CAM of 10-day old embryos. Filter disks of #1 filter paper (Whatman International, United Kingdom) were punched using a small puncher and were soaked in 3 mg/mL cortisone acetate (Sigma, St. Louis, Mo.) in a solution (95% ethanol and water). The disks were subsequently air dried under sterile conditions. The disks were then suspended in PBS (Phosphate Buffered Saline) and placed on growing CAMs. Filters treated with TP-H (TEMPOL-H) or TEMPOL and/or H2O2 or TP-H and/or bFGF or VEGF were placed on the first day of the 3-day incubation.
For inducing angiogenesis, sterile filter disks were saturated with bFGF (1 μg/ml) (Life Technologies, Gaithersburg, Md.) or other pro-angiogenesis factors and control disks were saturated with PBS without Calcium and Magnesium. […]
Using sterile forceps one filter/CAM was placed from the window. The window was sealed with Highland brand transparent tape.
After 24-48 hr, 10-25 ul of test agent was injected intravenously or added topically into the CAM membrane. Eight-Ten eggs/treatment group were used.
CAM tissue directly beneath filter disk was harvested from embryos treated 48 hours prior with compound or control. Tissues were washed three times with PBS. Sections were placed in a 35-mm petri dish (Nalge Nunc, Rochester, N.Y.) and examined under a SV6 stereomicroscope (Karl Zeiss, Thornwood, N.Y.) at 50× magnification.
CAM sections from Petri dish were examined using SV6 stereomicroscope (Karl Zeiss) at 50× magnification. Digital images of CAM sections from Petri dish were collected using a 3-CCD color video camera system (Toshiba America, New York, N.Y.). These images were analyzed using Image-Pro Plus software (Media Cybernetics, Silver Spring, Md.).
The number of branch points in blood vessels within the circular region superimposed to the area of a filter disk was counted for each section. After incubation at 37° C. with 55% relative humidity for 3 days, the CAM tissue directly beneath each filter disk was resected from control and treated CAM samples. Tissues were washed three times with PBS. Sections were placed in a 35-mm Petri dish (Nalge Nunc; Rochester, N.Y.) and were examined under a SV6 stereomicroscope (Karl Zeiss; Thornwood, N.Y.) at 50× magnification. Digital images of CAM sections adjacent to filters were collected using a 3-CCD color video camera system (Toshiba America; New York, N.Y.) and analyzed with the Image-Pro Plus software (Media Cybernetics; Silver Spring, Md.).
The number of vessel branch points contained in a circular region equal to the area of a filter disk was counted for each section. Percent inhibition data are expressed as the quotient of the experimental value minus the negative control value divided by the difference between the positive control value and the negative control value. […]

The test system of data set [3] is lipid peroxidation. Nature of the data set: Lipid peroxidation inhibition (method of Ohkawa). The format is biochemical.

Regarding `CC1(C)CC(C(N)=O)C(C)(C)N1O` (stereo not drawn) [Compound 24, 1-hydroxy-2,2,5,5-tetramethylpyrrolidine-3-carboxamide], the “Mean OD (×10^−3), cancer cell viability” value in data set [1] (Dox. 10^−6 M present (+)) is recorded as 362.00 ×10^−3; in data set [1] (Dox. absent (−)), 1166.50 ×10^−3. The Percent inhibition of angiogenesis in CAM model at 30 ug in data set [2] stood at 65.8%. The “% Lipid Peroxidation inhibition (at 1 uM)” value in data set [3] is listed as 37.0%.

Take `CC1(C)CC(O)C(C)(C)N1O` (stereo not drawn) [Compound 7, 2,2,5,5-Tetramethyl-Pyrrolidine-1,3-diol]: the “Mean OD (×10^−3), cancer cell viability” value in data set [1] (Dox. 10^−6 M present (+)) is reported as 241.25 ×10^−3; in data set [1] (Dox. absent (−)) it was 540.25 ×10^−3. The same compound gave a Percent inhibition of angiogenesis in CAM model at 30 ug in data set [2] of 100%. Moreover, the “Lipid Peroxidation % Inhibition” value in data set [3] (10 uM) is 82.9%.

On to `CC1(C)CC(Oc2nsnc2C#N)CC(C)(C)N1O` [Compound 45], for which the “Mean OD (×10^−3), cancer cell viability” value is 276.50 ×10^−3 in data set [1] (Dox. 10^−6 M present (+)) and 1063.33 ×10^−3 in data set [1] (Dox. absent (−)). In data set [2], the Percent inhibition of angiogenesis in CAM model at 30 ug stood at 50%. The “% Lipid Peroxidation inhibition (at 1 uM)” value in data set [3] is 91.5%.

On to `CC(C)(C)/[N+]([O-])=C/c1ccccc1` [Compound 17, α-phenyl-t-butyl nitrone, reference compound], for which the “Lipid Peroxidation % Inhibition” value in data set [3] (10 uM) is given as 0.4%.

Regarding `CC1(C)COC(=O)C(C)(C)N1O.Cl` [Compound 39, N-Hydroxyl-3,3,5,5-tetramethylmorpholin-2-one], the melting point is 145 °C (dec.). Further, in data set [1] (Dox. 10^−6 M present (+)), the “Mean OD (×10^−3), cancer cell viability” value is 311.00 ×10^−3. In addition, in data set [1] (Dox. absent (−)), the “Mean OD (×10^−3), cancer cell viability” value is reported as 1201.00 ×10^−3. Besides, the Percent inhibition of angiogenesis in CAM model at 30 ug in data set [2] turned out to be 96.9%.

Regarding `O=C(O)c1cc(C(=O)O)c2c(n1)C(=O)C(=O)c1cc(C(=O)O)[nH]c1-2` [PQQ, pyrroloquinoline quinone, reference compound], the “Lipid Peroxidation % Inhibition” value in data set [3] (100 uM) came to 93.7%.

On to `CC1(C)C=CCC(C)(C)N1O.Cl` [Compound 35, 1-hydroxy-1,2,3,6-tetrahydro-2,2,6,6-tetramethylpyridine], for which the “Mean OD (×10^−3), cancer cell viability” value in data set [1] (Dox. 10^−6 M present (+)) was 352.75 ×10^−3; in data set [1] (Dox. absent (−)), 1128.00 ×10^−3. For the same compound, the “% Lipid Peroxidation inhibition (at 1 uM)” value in data set [3] amounted to 64.4%.

`COc1cc(CNC2CC(C)(C)N(O)C(C)(C)C2)cc(OC)c1OC.Cl.Cl` [Compound 58, N-(3,4,5-trimethoxybenzyl)-1-hydroxy-2,2,6,6-tetramethylpiperidin-4-amine] yielded a melting point of 181 °C. Also, the “Mean OD (×10^−3), cancer cell viability” value in data set [1] (Dox. 10^−6 M present (+)) is 291.50 ×10^−3. The “Mean OD (×10^−3), cancer cell viability” value in data set [1] (Dox. absent (−)) is 1207.00 ×10^−3. The Percent inhibition of angiogenesis in CAM model at 30 ug in data set [2] was 39%.

For the compound `CC1(C)CC(Oc2nsnc2-c2ccccc2)CC(C)(C)N1O.Cl` [Compound 44, 1-hydroxy-4-(4-phenyl-1,2,5-thiadiazol-3-yloxy)-2,2,6,6-tetramethylpiperidine], the melting point is 220.8 °C (dec.). For the same compound, in data set [1] (Dox. 10^−6 M present (+)), the “Mean OD (×10^−3), cancer cell viability” value is given as 13.25 ×10^−3. In addition, in data set [1] (Dox. absent (−)), the “Mean OD (×10^−3), cancer cell viability” value is given as 23.00 ×10^−3. Further, the Percent inhibition of angiogenesis in CAM model at 30 ug in data set [2] worked out at 71.2%.

`CC1(C)CC(O)(c2ccccc2)CC(C)(C)N1O.Cl` [Compound 42, 1,4-Dihydroxy-4-phenyl-2,2,6,6-tetrmethylpiperidine]: the melting point was 201.7 °C (dec.). For the same compound, in data set [1] (Dox. 10^−6 M present (+)), the “Mean OD (×10^−3), cancer cell viability” value is 311.00 ×10^−3. The “Mean OD (×10^−3), cancer cell viability” value in data set [1] (Dox. absent (−)) is 1068.67 ×10^−3. The compound also yielded a Percent inhibition of angiogenesis in CAM model at 30 ug in data set [2] of 61.9%.

As for `CC1(C)CC(OCc2ccccc2)CC(C)(C)N1O.Cl` [Compound 43, 4-Benzyloxy-1-hydroxy-2,2,6,6-tetramethylpiperidine], the melting point is 181.5 °C (dec.). In addition, the “Mean OD (×10^−3), cancer cell viability” value in data set [1] (Dox. 10^−6 M present (+)) was 324.67 ×10^−3. Moreover, the “Mean OD (×10^−3), cancer cell viability” value in data set [1] (Dox. absent (−)) is 1159.00 ×10^−3. The compound also gave a Percent inhibition of angiogenesis in CAM model at 30 ug in data set [2] of 85.5%.

As for `COc1cc2c(cc1O)CC[C@@H]1[C@@H]2CC[C@]2(C)[C@@H](O)CC[C@@H]12` [2-Methoxy estradiol, reference compound], the “CAM data % Inhibition” value in data set [2] is given as 92.3%. Also, the “Lipid Peroxidation % Inhibition” value in data set [3] (10 uM) turned out to be 92.3%.

Consider `CC1(C)CC(Cl)CC(C)(C)N1O.Cl` [Compound 21, 4-chloro-1-hydroxy-2,2,6,6-tetramethylpiperidine], for which the melting point was 201.8 °C (dec.). In addition, the “Mean OD (×10^−3), cancer cell viability” value in data set [1] (Dox. 10^−6 M present (+)) is 99.25 ×10^−3. Also, the “Mean OD (×10^−3), cancer cell viability” value in data set [1] (Dox. absent (−)) is given as 492.75 ×10^−3. Besides, in data set [2], the Percent inhibition of angiogenesis in CAM model at 30 ug amounted to 60.9%.

Consider `CC1(C)CC(O)C(Br)C(C)(C)N1O` (stereo not drawn) [Compound 9, 3-Bromo-2,2,6,6-tetramethyl-piperidine-1,4-diol], for which the melting point was 138.5 °C (dec.). Further, the “Mean OD (×10^−3), cancer cell viability” value in data set [1] (Dox. 10^−6 M present (+)) is on record as 234.75 ×10^−3. Also, the “Mean OD (×10^−3), cancer cell viability” value in data set [1] (Dox. absent (−)) is 509.00 ×10^−3. In data set [2], the Percent inhibition of angiogenesis in CAM model at 30 ug was 82.2%.

For the compound `CCCCC1(O)CC(C)(C)N(O)C(C)(C)C1.Cl` [Compound 41, 1,4-dihydroxy-4-n-butyl-2,2,6,6-tetramethylpiperidine], the melting point is 187 °C (dec.). In addition, the “Mean OD (×10^−3), cancer cell viability” value in data set [1] (Dox. 10^−6 M present (+)) is listed as 261.25 ×10^−3. In addition, in data set [1] (Dox. absent (−)), the “Mean OD (×10^−3), cancer cell viability” value is recorded as 824.75 ×10^−3. The compound further came in with a Percent inhibition of angiogenesis in CAM model at 30 ug in data set [2] of 84.4%.

As a reminder, the melting point is the temperature of the solid-liquid transition.
